Results reported in patent publication US20150307520A1, “NOVEL HETEROARYL AND HETEROCYCLE COMPOUNDS, COMPOSITIONS AND METHODS THEREOF” (HUTCHISON MEDIPHARMA LIMITED, priority 2012, published 2015).

Assays:
Type in all cases: biochemical
p110β/p85α = p110β/p85α (Homo sapiens, UniProt P42338); assay: Transcreener KINASE Assay, kinase inhibition of p110β/p85α; conditions: for PI3Kβ IH % @ 1 uM: 1 uM test compound; for IC50: read-out: PI3Kβ IC50
Outline: (§1)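 ADP production was read by fluorescence polarization immunoassay (60 min detection step) after an 80 min room-temperature reaction of p110/p85α enzyme, compound in 2% DMSO, and PIP2/ATP solution (30 uM/10 uM as added) in HEPES buffer with MgCl2 and DTT. IC50s came from inhibition versus the DMSO control.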

p110δ/p85α = p110δ/p85α (Homo sapiens, UniProt O00329); assay: Transcreener KINASE Assay, kinase inhibition of p110δ/p85α; conditions: for PI3Kδ IH % @ 1 uM: 1 uM test compound; for IC50: read-out: PI3Kδ IC50
Outline: as §1

p110γ = p110γ (Homo sapiens, UniProt P48736); assay: Transcreener KINASE Assay, kinase inhibition of p110γ; conditions: for PI3Kγ IH % @ 1 uM: 1 uM test compound; for IC50: read-out: PI3Kγ IC50
Outline: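 Homogeneous endpoint format using recombinant enzymes; ADP measured by far-red FP immunoassay after 80 min reaction and 60 min detection, both at room temperature.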

Sequence of p110γ (P48736 whole entry): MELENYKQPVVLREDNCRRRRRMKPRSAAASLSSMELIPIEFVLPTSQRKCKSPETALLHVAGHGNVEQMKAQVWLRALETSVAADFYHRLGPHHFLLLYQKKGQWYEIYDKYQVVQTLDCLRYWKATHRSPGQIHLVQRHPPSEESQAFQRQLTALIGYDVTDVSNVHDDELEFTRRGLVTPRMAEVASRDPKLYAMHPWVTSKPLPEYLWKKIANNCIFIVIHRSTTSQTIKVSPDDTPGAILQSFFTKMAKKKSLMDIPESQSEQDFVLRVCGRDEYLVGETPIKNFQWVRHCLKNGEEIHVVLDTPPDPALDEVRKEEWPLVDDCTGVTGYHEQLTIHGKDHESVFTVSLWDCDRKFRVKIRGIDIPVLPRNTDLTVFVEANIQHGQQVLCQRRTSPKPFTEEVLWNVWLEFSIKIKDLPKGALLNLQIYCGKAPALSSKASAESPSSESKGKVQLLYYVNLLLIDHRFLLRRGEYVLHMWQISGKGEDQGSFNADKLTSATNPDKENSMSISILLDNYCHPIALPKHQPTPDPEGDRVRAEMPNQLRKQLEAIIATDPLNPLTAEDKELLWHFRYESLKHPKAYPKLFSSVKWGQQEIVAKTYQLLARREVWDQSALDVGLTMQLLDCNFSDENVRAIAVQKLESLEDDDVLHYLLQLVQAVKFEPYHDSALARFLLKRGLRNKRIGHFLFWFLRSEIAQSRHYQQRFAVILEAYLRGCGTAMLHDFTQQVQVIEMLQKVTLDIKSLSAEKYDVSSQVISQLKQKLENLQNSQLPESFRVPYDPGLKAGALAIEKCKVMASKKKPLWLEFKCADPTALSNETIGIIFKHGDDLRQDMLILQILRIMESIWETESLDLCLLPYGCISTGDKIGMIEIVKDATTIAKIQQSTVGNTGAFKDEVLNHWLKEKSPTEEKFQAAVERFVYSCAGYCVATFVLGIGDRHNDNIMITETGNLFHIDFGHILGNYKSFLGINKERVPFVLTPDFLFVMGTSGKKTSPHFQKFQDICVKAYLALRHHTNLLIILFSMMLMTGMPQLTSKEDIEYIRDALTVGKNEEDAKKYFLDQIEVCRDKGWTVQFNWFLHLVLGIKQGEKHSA
Sequence of p110δ/p85α (O00329 whole entry): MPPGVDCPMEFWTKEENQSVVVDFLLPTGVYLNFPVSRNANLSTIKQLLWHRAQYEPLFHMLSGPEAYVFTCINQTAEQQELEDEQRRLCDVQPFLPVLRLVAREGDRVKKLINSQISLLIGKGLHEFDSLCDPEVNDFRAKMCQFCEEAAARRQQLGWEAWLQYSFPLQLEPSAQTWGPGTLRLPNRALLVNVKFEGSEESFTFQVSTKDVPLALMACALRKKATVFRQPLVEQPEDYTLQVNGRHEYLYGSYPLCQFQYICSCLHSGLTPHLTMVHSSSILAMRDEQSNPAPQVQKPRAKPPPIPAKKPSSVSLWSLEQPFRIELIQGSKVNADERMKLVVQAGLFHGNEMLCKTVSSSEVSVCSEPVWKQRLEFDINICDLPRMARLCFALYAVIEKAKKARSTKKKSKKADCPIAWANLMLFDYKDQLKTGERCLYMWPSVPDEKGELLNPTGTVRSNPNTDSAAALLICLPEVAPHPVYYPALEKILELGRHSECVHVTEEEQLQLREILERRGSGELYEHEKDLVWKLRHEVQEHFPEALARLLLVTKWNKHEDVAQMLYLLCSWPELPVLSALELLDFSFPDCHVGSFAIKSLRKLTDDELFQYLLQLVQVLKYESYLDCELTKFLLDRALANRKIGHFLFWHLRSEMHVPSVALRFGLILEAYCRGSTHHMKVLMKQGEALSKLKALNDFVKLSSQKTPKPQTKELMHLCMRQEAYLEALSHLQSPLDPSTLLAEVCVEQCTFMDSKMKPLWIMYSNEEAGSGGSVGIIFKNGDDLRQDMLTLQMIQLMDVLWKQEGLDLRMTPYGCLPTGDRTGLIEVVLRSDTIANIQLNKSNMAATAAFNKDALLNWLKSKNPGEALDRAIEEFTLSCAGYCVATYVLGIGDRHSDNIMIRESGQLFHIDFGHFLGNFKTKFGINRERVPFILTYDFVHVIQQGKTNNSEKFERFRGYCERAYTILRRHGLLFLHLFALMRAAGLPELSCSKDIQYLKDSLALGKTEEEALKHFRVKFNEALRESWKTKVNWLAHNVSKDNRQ
Sequence of p110δ/p85α (P27986 whole entry partner): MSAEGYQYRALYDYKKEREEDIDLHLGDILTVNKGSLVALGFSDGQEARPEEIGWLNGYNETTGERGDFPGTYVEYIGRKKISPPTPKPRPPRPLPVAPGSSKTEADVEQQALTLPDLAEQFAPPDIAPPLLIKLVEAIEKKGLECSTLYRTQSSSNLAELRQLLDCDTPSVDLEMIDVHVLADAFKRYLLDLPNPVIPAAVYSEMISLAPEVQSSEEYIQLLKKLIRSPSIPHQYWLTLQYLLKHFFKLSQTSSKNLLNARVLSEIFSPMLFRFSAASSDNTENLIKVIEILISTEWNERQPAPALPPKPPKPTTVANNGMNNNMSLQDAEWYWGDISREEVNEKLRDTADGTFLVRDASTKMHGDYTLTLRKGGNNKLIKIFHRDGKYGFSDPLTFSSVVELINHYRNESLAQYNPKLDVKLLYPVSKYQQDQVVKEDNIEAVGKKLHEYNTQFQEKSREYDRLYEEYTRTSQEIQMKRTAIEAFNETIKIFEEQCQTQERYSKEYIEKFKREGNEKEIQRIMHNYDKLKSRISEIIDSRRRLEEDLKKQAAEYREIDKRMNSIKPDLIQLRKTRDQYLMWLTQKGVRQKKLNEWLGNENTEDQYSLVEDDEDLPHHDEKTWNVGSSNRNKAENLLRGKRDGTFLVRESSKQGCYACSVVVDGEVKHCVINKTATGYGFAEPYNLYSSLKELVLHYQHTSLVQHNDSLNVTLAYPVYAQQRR
Sequence of p110β/p85α (P42338 whole entry): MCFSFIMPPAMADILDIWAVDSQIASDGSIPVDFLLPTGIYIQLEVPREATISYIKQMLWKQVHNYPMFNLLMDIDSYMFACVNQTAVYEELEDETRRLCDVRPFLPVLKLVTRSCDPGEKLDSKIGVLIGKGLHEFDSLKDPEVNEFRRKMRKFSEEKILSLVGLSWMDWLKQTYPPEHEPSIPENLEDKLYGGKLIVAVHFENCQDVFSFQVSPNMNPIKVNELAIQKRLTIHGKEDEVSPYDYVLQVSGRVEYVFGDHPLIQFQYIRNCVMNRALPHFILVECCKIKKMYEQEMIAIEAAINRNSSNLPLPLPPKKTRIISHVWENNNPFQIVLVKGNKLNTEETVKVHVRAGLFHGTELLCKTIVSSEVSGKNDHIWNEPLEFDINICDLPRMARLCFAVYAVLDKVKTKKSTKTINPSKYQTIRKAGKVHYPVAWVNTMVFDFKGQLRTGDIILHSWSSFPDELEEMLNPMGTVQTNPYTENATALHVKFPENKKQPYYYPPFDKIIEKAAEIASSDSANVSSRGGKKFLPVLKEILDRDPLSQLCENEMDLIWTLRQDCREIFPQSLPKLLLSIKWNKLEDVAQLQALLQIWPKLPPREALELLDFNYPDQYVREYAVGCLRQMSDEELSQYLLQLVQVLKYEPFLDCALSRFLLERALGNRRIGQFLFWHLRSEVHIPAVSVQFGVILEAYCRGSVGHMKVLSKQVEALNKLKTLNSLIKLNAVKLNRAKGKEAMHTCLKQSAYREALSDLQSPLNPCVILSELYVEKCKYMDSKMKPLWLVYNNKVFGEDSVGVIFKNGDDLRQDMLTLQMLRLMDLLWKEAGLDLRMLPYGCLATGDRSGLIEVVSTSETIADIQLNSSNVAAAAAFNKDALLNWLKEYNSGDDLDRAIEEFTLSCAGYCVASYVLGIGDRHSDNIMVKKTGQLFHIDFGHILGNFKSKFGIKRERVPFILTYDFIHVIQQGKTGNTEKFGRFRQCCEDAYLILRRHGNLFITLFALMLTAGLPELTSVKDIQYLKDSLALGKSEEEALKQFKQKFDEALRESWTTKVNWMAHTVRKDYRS
Sequence of p110β/p85α (P27986 2-724 partner): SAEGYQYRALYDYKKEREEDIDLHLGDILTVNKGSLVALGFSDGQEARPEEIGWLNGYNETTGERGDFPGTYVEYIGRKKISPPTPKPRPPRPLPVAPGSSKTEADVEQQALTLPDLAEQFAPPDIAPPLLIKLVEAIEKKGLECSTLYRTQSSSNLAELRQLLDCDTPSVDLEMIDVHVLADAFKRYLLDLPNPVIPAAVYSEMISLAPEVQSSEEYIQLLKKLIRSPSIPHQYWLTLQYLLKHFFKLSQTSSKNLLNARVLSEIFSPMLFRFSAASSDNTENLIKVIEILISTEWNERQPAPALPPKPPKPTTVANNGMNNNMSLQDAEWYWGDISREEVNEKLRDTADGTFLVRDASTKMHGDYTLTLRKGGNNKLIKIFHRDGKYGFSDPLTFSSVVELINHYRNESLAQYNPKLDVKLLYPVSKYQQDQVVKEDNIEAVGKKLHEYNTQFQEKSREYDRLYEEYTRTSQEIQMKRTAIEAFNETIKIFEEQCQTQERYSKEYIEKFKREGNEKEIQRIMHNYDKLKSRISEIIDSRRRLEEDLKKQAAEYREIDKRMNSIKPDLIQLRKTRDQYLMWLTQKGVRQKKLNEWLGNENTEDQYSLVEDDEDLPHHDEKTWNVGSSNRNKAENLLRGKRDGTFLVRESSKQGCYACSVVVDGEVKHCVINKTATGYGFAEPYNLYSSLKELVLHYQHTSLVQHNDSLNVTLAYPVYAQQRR

Row | SMILES | PI3Kβ IH % @ 1 uM (p110β/p85α) | PI3Kδ IH % @ 1 uM (p110δ/p85α) | IC50 (p110δ/p85α) | PI3Kγ IH % @ 1 uM (p110γ) | IC50 (p110β/p85α) | IC50 (p110γ)
1 | Nc1nc2c(c(N3CCCC3c3cn4ccc(Cl)c4c(=O)n3-c3ccccc3)n1)C(=O)CCN2 (stereo not shown) [Compound 327] | 73.4% | 99.5% | 2 nM | 97.2% | 250 nM | 1 nM
2 | Cc1nc(N)nc(N2C[C@H](C)[C@H]2c2nn3ccc(C#N)c3c(=O)n2-c2ccccc2)c1C#N [Compound 499] | 86.1% | >100% | 2 nM | 96.0% | 84 nM | 5 nM
3 | CC(=O)c1cnc(N)nc1N1CC[C@H]1c1nn2ccc(Cl)c2c(=O)n1-c1cccc(C)n1 [Compound 479] | 20.1% | 91.6% | 10 nM | 94.7% |  | 120 nM
4 | CC(Nc1ncnc(N)c1C#N)c1cc2c(Cl)cc(Cl)n2c(=O)n1-c1ccccc1 (stereo not shown) [Compound 126] | 90.9% | >100% | 1 nM | >100% | 25 nM | 20 nM
5 | CC(Nc1ncnc2[nH]cnc12)c1cc2ccc(Cl)n2c(=O)n1-c1ccccc1 (stereo not shown) [Compound 122, 3-(1-(9H-purin-6-ylamino)ethyl)-7-chloro-2-phenylpyrrolo[1,2-c]pyrimidin-1(2H)-one] | 88.3% | >100% | 3 nM | >100% | 51 nM | 8 nM
6 | O=c1c2c(Cl)ccn2nc([C@@H]2CCN2c2nc(N3CCOCC3)nc3[nH]cnc23)n1-c1ccccc1 [Compound 114, (S)-5-chloro-2-(1-(2-morpholino-9H-purin-6-yl)azetidin-2-yl)-3-phenylpyrrolo[2,1-f][1,2,4]triazin-4(3H)-one] | 86.4% | 93.7% | 27 nM | 4.3% | 159 nM | 
7 | CC(Nc1ncnc(N)c1C#N)c1cn2ccc(Cl)c2c(=O)n1-c1cc(F)cc(F)c1 (stereo not shown) [Compound 81] | 79.0% | >100% |  | 87.9% | 217 nM | 
8 | CC(Nc1ncnc2[nH]cc(C#N)c12)c1cc2ncc(Cl)n2c(=O)n1-c1ccccc1 (stereo not shown) [Compound 116] | >100% | >100% | 5 nM | 96.9% | 128 nM | 45 nM
9 | O=c1c2c(Cl)ccn2nc([C@@H]2C[C@H](F)CN2c2ncnc3[nH]cnc23)n1Cc1ccccn1 [Compound 157] | 39.5% | >100% | 21 nM | 79.9% |  | 280 nM
10 | N#Cc1c[nH]c2ncnc(N3C[C@@H](F)C[C@H]3c3nn4ccc(F)c4c(=O)n3-c3ccccn3)c12 [Compound 346] | 86.1% | >100% | 2 nM | 94.1% | 47 nM | 26 nM
11 | Nc1nc(N2CC[C@H]2c2nn3ccc(Cl)c3c(=O)n2-c2ccccc2)n2ncc(Cl)c2n1 [Compound 314, (S)-2-(1-(2-amino-8-chloropyrazolo[1,5-a][1,3,5]triazin-4-yl)azetidin-2-yl)-5-chloro-3-phenylpyrrolo[2,1-f][1,2,4]triazin-4(3H)-one] | 16.8% | 17.2% |  | 54.1% |  | 
12 | CC(=O)c1cnc(N)nc1NC(C)c1cn2ccc(Cl)c2c(=O)n1-c1cccc(F)c1 (stereo not shown) [Compound 435] | 91.2% | 99.7% | 3 nM | 83.7% | 14 nM | 
13 | C[C@H]1CN(c2ncnc3[nH]cc(C#N)c23)[C@@H]1c1nn2ccc(F)c2c(=O)n1-c1ccccc1 [Compound 244] | 58.4% | 99.8% | 4 nM | 92.7% |  | 30 nM
14 | C[C@H]1CN(c2ncnc3[nH]cc(C#N)c23)[C@@H]1c1nn2ccc(Cl)c2c(=O)n1-c1ccccn1 [Compound 476] | 78.1% | 95.9% | 1 nM | 89.5% | 79 nM | 24 nM
15 | Cc1nc(N)nc(N2C[C@H](C)[C@H]2c2nn3ccc(F)c3c(=O)n2-c2ccc(F)cc2)c1C#N [Compound 463] | 89.6% | >100% | 4 nM | >100% | 50 nM | 5 nM

Results, then the compound that gave them:

Row | PI3Kβ IH % @ 1 uM (p110β/p85α) | PI3Kδ IH % @ 1 uM (p110δ/p85α) | IC50 (p110δ/p85α) | PI3Kγ IH % @ 1 uM (p110γ) | IC50 (p110β/p85α) | IC50 (p110γ) | SMILES
16 | 33.8% | >100% | 14 nM | 68.1% |  |  | N#Cc1c[nH]c2ncnc(N3CC[C@H]3c3nn4ccc(F)c4c(=O)n3-c3ccccc3)c12 [Compound 46]
17 | 6.8% | 77.0% | 381 nM | 85.5% |  | 36 nM | CC(=O)c1c[nH]c2ncnc(N3CC[C@H]3c3nn4ccc(Cl)c4c(=O)n3-c3ccc(F)cc3)c12 [Compound 296, (S)-2-(1-(5-acetyl-7H-pyrrolo[2,3-d]pyrimidin-4-yl)azetidin-2-yl)-5-chloro-3-(4-fluorophenyl)pyrrolo[2,1-f][1,2,4]triazin-4(3H)-one]
18 | 78.0% | >100% | 2 nM | >100% | 137 nM | 1 nM | Cc1nc(N)nc(N2CC[C@H]2c2nn3ccc(Cl)c3c(=O)n2-c2ccccc2)c1C#N [Compound 283]
19 | 45.1% | >100% | 7 nM | 94.7% |  | 112 nM | C=Cc1ccn2nc([C@@H]3CCCN3c3ncnc4[nH]cc(C#N)c34)n(-c3ccccc3)c(=O)c12 [Compound 292]
20 | 42.3% | >100% | 12 nM | 95.0% |  | 75 nM | Nc1ncnc(N2CCC[C@H]2c2nn3ccc(Cl)c3c(=O)n2-c2ccccc2)n1 [Compound 138, (S)-2-(1-(4-amino-1,3,5-triazin-2-yl)pyrrolidin-2-yl)-5-chloro-3-phenylpyrrolo[2,1-f][1,2,4]triazin-4(3H)-one]
21 | 80.7% | 98.9% | 5 nM | 95.9% | 213 nM | 32 nM | CC(=O)Nc1c[nH]c2ncnc(N3CCC[C@H]3c3nn4ccc(Cl)c4c(=O)n3-c3ccccc3)c12 [Compound 307, (S)—N-(4-(2-(5-chloro-4-oxo-3-phenyl-3,4-dihydropyrrolo[2,1-f][1,2,4]triazin-2-yl)pyrrolidin-1-yl)-7H-pyrrolo[2,3-d]pyrimidin-5-yl)acetamide]
22 | 39.0% | 93.9% | 45 nM | 67.2% |  |  | N#Cc1n[nH]c2ncnc(N3CCC[C@H]3c3nn4ccc(Cl)c4c(=O)n3-c3ccccc3)c12 [Compound 111, (S)-4-(2-(5-chloro-4-oxo-3-phenyl-3,4-dihydropyrrolo[2,1-f][1,2,4]triazin-2-yl)pyrrolidin-1-yl)-1H-pyrazolo[3,4-d]pyrimidine-3-carbonitrile]
23 | 11.5% | 88.1% | 172 nM | 65.9% |  |  | CCc1ccn2nc([C@@H]3CCN3c3ncnc4[nH]cc(C#N)c34)n(-c3ccccc3)c(=O)c12 [Compound 133, (S)-4-(2-(5-ethyl-4-oxo-3-phenyl-3,4-dihydropyrrolo[2,1-f][1,2,4]triazin-2-yl)azetidin-1-yl)-7H-pyrrolo[2,3-d]pyrimidine-5-carbonitrile]
24 | 4.6% | 96.1% | 5 nM | 66.5% |  |  | COc1ccc(-c2n[nH]c3ncnc(N4CC[C@H]4c4nn5ccc(Cl)c5c(=O)n4-c4ccccc4)c23)cn1 [Compound 170]
25 | 4.8% | 53.0% |  | 73.0% |  |  | Nc1nc2c(c(N3CC[C@H]3c3nn4ccc(Cl)c4c(=O)n3-c3ccccc3)n1)CCC2 [Compound 247]
26 | 93.3% | >100% |  | 94.9% | 62 nM | 7 nM | COc1ccc(-c2c[nH]c3ncnc(N4CC[C@H]4c4nn5ccc(F)c5c(=O)n4-c4ccccc4)c23)cn1 [Compound 182]
27 | >100% | 99.7% | 1 nM | 98.2% | 46 nM | 19 nM | N#Cc1ncc(-c2c[nH]c3ncnc(N4CC[C@H]4c4nn5ccc(Cl)c5c(=O)n4-c4ccccc4)c23)cn1 [Compound 103]
28 | 93.7% | 97.7% |  | >100% | 61 nM | 81 nM | Cn1c([C@@H]2CCCN2c2ncnc3[nH]cc(C#N)c23)nn2ccc(Cl)c2c1=O [Compound 63]
29 | 20.7% | 94.2% |  | 16.5% |  |  | N#Cc1cccc(-n2c([C@@H]3CCCN3c3ncnc4[nH]cc(C#N)c34)nn3ccc(Cl)c3c2=O)c1 [Compound 39]
30 | 21.7% | 91.1% |  | 83.9% |  |  | O=c1c2c(Br)ccn2nc([C@@H]2CCN2c2ncnc3[nH]cnc23)n1-c1ccccc1 [Compound 56]
